Calls of active or inactive are those of the source. No cut-off for these calls is given here.
How the values were obtained:
[1] = target: T1, Type-1 angiotensin II receptor (Oryctolagus cuniculus) (UniProt P34976); experiment: In vitro inhibition of ATII induced contractions of the isolated rabbit aorta.
T1 sequence (whole entry): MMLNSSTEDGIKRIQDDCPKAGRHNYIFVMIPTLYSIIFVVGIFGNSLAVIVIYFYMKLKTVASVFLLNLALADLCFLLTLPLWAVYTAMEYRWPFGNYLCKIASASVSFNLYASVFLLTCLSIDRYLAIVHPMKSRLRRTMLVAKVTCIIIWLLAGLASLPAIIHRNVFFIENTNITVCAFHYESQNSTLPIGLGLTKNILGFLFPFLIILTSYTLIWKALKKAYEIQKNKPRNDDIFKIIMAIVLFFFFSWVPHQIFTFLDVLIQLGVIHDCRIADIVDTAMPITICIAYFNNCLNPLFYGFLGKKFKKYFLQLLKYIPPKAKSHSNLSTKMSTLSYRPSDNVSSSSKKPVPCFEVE

Rattus norvegicus [2] = experiment: Effect on diastolic blood pressure of hypertensive rats 5 hours following 1 mg/kg p.o. administration.; type: functional, Artery; conditions: route oral
Rattus norvegicus [3] = experiment: Effect on diastolic blood pressure of hypertensive rats immediately following 1 mg/kg p.o. administration.; type: functional, Artery; conditions: route oral
Rattus norvegicus [4] = experiment: Effect on diastolic blood pressure of hypertensive rats 48 hours following 1 mg/kg p.o. administration.; type: functional, Artery; conditions: route oral
Rattus norvegicus [5] = experiment: Effect on diastolic blood pressure of hypertensive rats 7 hours following 1 mg/kg p.o. administration.; type: functional, Artery; conditions: route oral
Rattus norvegicus [6] = experiment: Effect on diastolic blood pressure of hypertensive rats 1 hour following 1 mg/kg p.o. administration.; type: functional, Artery; conditions: route oral
Rattus norvegicus [7] = experiment: Effect on diastolic blood pressure of hypertensive rats 24 hours following 1 mg/kg p.o. administration.; type: functional, Artery; conditions: route oral
Rattus norvegicus [8] = experiment: Effect on diastolic blood pressure of hypertensive rats 3 hours following 1 mg/kg p.o. administration.; type: functional, Artery; conditions: route oral
Rattus norvegicus [9] = organism: Rattus norvegicus; experiment: Effect on diastolic blood pressure of hypertensive rats; Inactive; type: functional, organism-based; conditions: Artery

SMILES | pKB [1] | further results
CCCCc1n[nH]c(C(=O)O)c1Cc1ccc(-c2ccccc2-c2nn[nH]n2)cc1 | 8.8 | –
CCCCc1nn(CC(C)(C)C)c(C(=O)O)c1Cc1ccc(-c2ccccc2-c2nn[nH]n2)cc1 | 10.6 | –
CCCCc1nn(CC(F)(F)F)c(COC)c1Cc1ccc(-c2ccccc2-c2nn[nH]n2)cc1 | 7 | –
CCCCc1nn(CCCC)c(C(=O)O)c1Cc1ccc(-c2ccccc2-c2nn[nH]n2)cc1 | 10 | –
CCCCc1nn(CC)c(C(=O)O)c1Cc1ccc(-c2ccccc2NS(=O)(=O)C(F)(F)F)cc1 | 8 | –
CCCCc1nn(CC(C)C)c(C(=O)O)c1Cc1ccc(-c2ccccc2-c2nn[nH]n2)cc1 | 11 | –
CCCCc1nn(CC)c(C(=O)O)c1Cc1ccc(-c2ccccc2C(=O)O)cc1 | 8 | –
CCCCc1nn(CC2CC2)c(C(=O)O)c1Cc1ccc(-c2ccccc2-c2nn[nH]n2)cc1 | 10.5 | Blood pressure (Rattus norvegicus [2]): 95 mmHg; Blood pressure (Rattus norvegicus [3]): 150 mmHg; Blood pressure (Rattus norvegicus [4]): 130 mmHg; Blood pressure (Rattus norvegicus [5]): 95 mmHg; Blood pressure (Rattus norvegicus [6]): 145 mmHg; Blood pressure (Rattus norvegicus [7]): 97 mmHg; Blood pressure (Rattus norvegicus [8]): 115 mmHg
CCCCc1nn(C)c(C(=O)O)c1Cc1ccc(-c2ccccc2-c2nn[nH]n2)cc1 | 9.8 | –
CCCCc1nn(CCC)c(C(=O)O)c1Cc1ccc(-c2ccccc2-c2nn[nH]n2)cc1 | 10.5 | –
CCCCc1nn(CC)c(C(=O)O)c1Cc1ccc(-c2ccccc2-c2nn[nH]n2)cc1 | 9.8 | –
CCCCc1c(Cc2ccc(-c3ccccc3-c3nn[nH]n3)cc2)c(COC)nn1CC(F)(F)F | 7 | –
CCCCc1c(Cc2ccc(-c3ccccc3-c3nn[nH]n3)cc2)c(C(=O)O)nn1CCCC | 8 | –
CCCCc1c(Cc2ccc(-c3ccccc3-c3nn[nH]n3)cc2)c(C(=O)O)nn1CC(F)(F)F | 7.7 | –
CCCCc1nn(CC(F)(F)F)c(C(=O)O)c1Cc1ccc(-c2ccccc2-c2nn[nH]n2)cc1 | 9.8 | –
CCCCc1nn(CC)c(CO)c1Cc1ccc(-c2ccccc2-c2nn[nH]n2)cc1 | 8 | –
CCCCc1nn(CC)c(C(=O)NC)c1Cc1ccc(-c2ccccc2-c2nn[nH]n2)cc1 | 7.5 | –
CCCCc1nn(C(C)C)c(C(=O)O)c1Cc1ccc(-c2ccccc2-c2nn[nH]n2)cc1 | 10 | –
CCCCc1c(Cc2ccc(-c3ccccc3-c3nn[nH]n3)cc2)c(C(=O)O)nn1C(C)C | 8 | –
CCCCc1nn(C2CCC2)c(C(=O)O)c1Cc1ccc(-c2ccccc2-c2nn[nH]n2)cc1 | 10.9 | Blood pressure (Rattus norvegicus [9]): inactive
CCCCc1nn(CC)c(C(=O)OCC)c1Cc1ccc(-c2ccccc2-c2nn[nH]n2)cc1 | 8 | –

Reference: ChEMBL document CHEMBL1126346, “C-linked pyrazole biaryl tetrazoles as antagonists of angiotensin II” (1992)
